{"source": "patent US20060134197A1", "about": "“Method of reducing unpleasant taste and/or unpleasant odor” (priority 2002, published 2006)", "key": {"[1]": {"test": "Panel test of lowering iron taste and/or smell of aqueous bivalent iron ion solution", "design": "key to Effect on lowering iron taste and/or smell: “Not effective (symbol “−”)” meaning of that the test aqueous solution showed no difference in iron taste and/or smell from that the control aqueous solution; “Slightly effective (symbol “+”)”, the test aqueous solution showes weaker iron taste and/or smell than the control aqueous solution but the deference was not significant; “Effective (symbol “++”)”, the test aqueous solution showed a slight iron taste and/or smell but it was significantly weaker than that of the control aqueous solution; “Strongly effective (symbol “+++”)”, the test aqueous solution showed almost no iron taste and/or smell", "details": "for Effect on lowering iron taste and/or smell: 5 mg bivalent iron per 100 ml, 12 panels; for Concentration effective on lowering unpleasant taste and/or smell of aqueous iron ion solution: to the total weight of the aqueous solution, dry solid basis", "description": "To confirm the effect of various saccharides on inhibiting taste and/or smell of bivalent iron ion, the following experiment was carried out. An aqueous solution containing bivalent iron ion was prepared by dissolving 0.05556 part by weight of ammonium ferric citrate (iron content of about 18%), and 0.1 part by weight of ascorbic acid in 100 parts by weight of deionized water. Test aqueous solutions containing 5 mg of bivalent iron per 100 ml of water and 0.5, 1.0, 1.5, 2.0 or 5.0% of saccharide selected from sucrose, maltose (hydrous crystalline maltose commercialized by Hayashibara Biochemical Laboratories, Inc., Okayama, Japan, purify 99.0% or more), α,α-trehalose (hydrous crystalline α,α-trehalose commercialized by Hayashibara Biochemical Laboratories, Inc., Okayama, Japan, purity 99.0% or more), α-glucosyl α,α-trehalose (hydrous crystalline α-glucosyl α,α-trehalose prepared in Experiment B-1 of Japanese Patent Publication (Kokai) No. 291,986/1995, purity 99.0% or more), and […] (powdery α-maltosyl α,α-trehalose prepared in Example 5 described following, purity 98.1%) were prepared by admixing the above aqueous solution containing bivalent iron with an equal volume of a pre-prepared aqueous solution containing any one of the above saccharides at a concentration of 1.0, 2.0, 3.0, 4.0 or 10.0%, on a dry solid basis. As a control, an aqueous solution was prepared by admixing the aqueous solution containing bivalent iron ion with an equal volume of warter instead of the aqueous saccharide solution.\nThe effect on lowering iron taste and/or smell, namely unpleasant taste and/or smell of iron ion existing in a test aqueous solution at a concentration of 5 mg per 100 ml was judged by a panel test using 12 panels. […] In the judgement for each test aqueous solution, ten or more of 12 panels answered the same judgement."}, "[2]": {"test": "Inhibiting the production of hydrogen sulfide from heated minced mackerel", "details": "minced mackerel with 5% saccharide solution, headspace gas", "description": "Five grams of minced mackerel, prepared by mincing commercialized mackerel without head part, internal organs and bone with a mincer to homogeneity, was placed in a 20-ml vial, and admixed with 5 ml of an aqueous solution containing on a dry solid basis 5% of “TREHA®”, a food grade hydrous α,α-trehalose commercialized by Hayashibara Biochemical laboratories, Inc., Okayama, Japan (purity 99.0% or more), sucrose (a commercialized granulated sugar), or a syrupy saccharide mixture containing saccharide derivatives of α,α-trehalose prepared in Example 1. The resulting vials were sealed with a butyl gum cap to prepare test samples. As a control, a vial containing 5 g of the minced mackerel and 5 ml of deionized water was sealed with a butyl gum cap for a control sample. […]\nSimilarly as in Experiment 4, the content of hydrogen sulfide was measured using 10 ml of a headspace gas by “GASTECH No. 4 LT”, a hydrogen sulfide detector commercialized by GL Science Corporation, under an aspiration time of one minute.\n(§1) The values of the production of amines, hydrogen sulfide and aldehydes of each test sample were compared with the value of control defined as 100 to calculate the relative values thereof. And then, the relative rates of inhibiting the production of amines, hydrogen sulfide and aldehydes were respectively calculated by 100 minus each of the relative values."}, "[3]": {"test": "Inhibiting the production of aldehydes from heated minced mackerel (headspace GC)", "details": "minced mackerel with 5% saccharide solution; for Relative rate of inhibiting the production of acetaldehyde / Relative rate of inhibiting the production of butanal / Relative rate of inhibiting the production of decanal / Relative rate of inhibiting the production of heptanal / Relative rate of inhibiting the production of hexanal / Relative rate of inhibiting the production of nonanal / Relative rate of inhibiting the production of octanal / Relative rate of inhibiting the production of pentanal / Relative rate of inhibiting the production of propanal: headspace gas; for Relative rate of inhibiting the production of total aldehydes: sum of nine aldehydes", "description": "Five grams of minced mackerel, prepared by mincing commercialized mackerel without head part, internal organs and bone with a mincer to homogeneity, was placed in a 20-ml vial, and admixed with 5 ml of an aqueous solution containing on a dry solid basis 5% of “TREHA®”, a food grade hydrous α,α-trehalose commercialized by Hayashibara Biochemical laboratories, Inc., Okayama, Japan (purity 99.0% or more), sucrose (a commercialized granulated sugar), or a syrupy saccharide mixture containing saccharide derivatives of α,α-trehalose prepared in Example 1. The resulting vials were sealed with a butyl gum cap to prepare test samples. As a control, a vial containing 5 g of the minced mackerel and 5 ml of deionized water was sealed with a butyl gum cap for a control sample. These samples were heated in boiled water for 15 minutes, cooled in running water, and heated at 80° C. for five minutes. The resulting headspace gas was taken from each of the vials and allowed to measure the contents of amines, hydrogen sulfide and aldehydes.\nMeasurement of the content of aldehydes was carried out by subjecting 2 ml of the headspace gas to analysis by GC-14B gas chromatography, a hydrogen flame ionizing detector commercialized by Shimazu co., Ltd., Kyoto, Japan, with flowing helium gas as a carrier gas in 1 ml/minute, and using TC-FFAP capillary column, 30min length and 0.52 mm in internal diameter (df=1 μm, sprit rate 1/30), commercialized by GL Science Company, with an increasing column temperature from 40° C. to 250° C. at a rate of 5° C./minute.\nas §1"}, "[4]": {"test": "Inhibiting the production of lower aldehydes and 2,3-butandion from heated cacao powder", "details": "1 g cacao powder in 4 ml of 2.5% saccharide solution; microwave, then 100° C. five minutes", "description": "“Stuffy smell”, meaning a kind of foreign smell generated from cocoa, chocolate, and compositions thereof during their processes, is known to deteriorate their flavor. 2,3-Butandion and lower aldehydes are known as a causative substance of foreign smell. On the other hand, […], classified in lower aldehydes, is known as one of the aromatic ingredients of chocolates. To confirm the effect of saccharide derivatives of α,α-trehalose on inhibiting the production of such compounds, the following experiment was carried out. Four milliliters of 2.5%, on a dry solid basis, saccharide solution containing either of sucrose, “TREHA®” (an α,α-trehalose commercialized by Hayashibara Biochemical Laboratories, Inc., Okayama, Japan), a commercialized enzyme-treated starch syrup and a syrupy saccharide mixture containing saccharide derivatives of α,α-trehalose prepared in Example 1 (on a dry solid basis about 53% of saccharide derivatives of α,α-trehalose) was placed in a 20-ml vial and admixed with 1 g of cacao powder. The resulting vial was covered with a plastic warp and heated by a microwave oven (500 W) for five seconds. As a control, 4 ml of distilled water and 1 g of cacao powder were placed in the vial and treated similarly as in the saccharide solutions. These vials were sealed with a butyl gum cap over the plastic wrap and heated at 100° C. in a heat block for five minutes. Two milliliters of the resulting headspace gas was subjected to gas chromatography to measure the contents of lower aldehydes and 2,3-butandion according to the method in Experiment 5-4. The amount of total aldehydes was calculated by totalizing the measured amounts of three kinds of aldehydes and other aldehydes listed in Table 8.\nThe resulting value of the production of aldehydes or 2,3-butandion of each of the test samples was compared with the value of control defined as 100 to calculate the relative value of the production of them. And then, the relative rate of inhibiting the production of them was calculated by 100 minus the relative value."}}}
{"smiles": "OC[C@H]1O[C@H](O[C@H]2O[C@H](CO)[C@@H](O)[C@H](O)[C@H]2O)[C@H](O)[C@@H](O)[C@@H]1O", "note": "[α,α-Trehalose, α,α-trehalose]", "values": [{"measurement": "Effect on lowering iron taste and/or smell", "setting": "[1]; saccharide 0.5%", "value": "−"}, {"measurement": "Effect on lowering iron taste and/or smell", "setting": "[1]; saccharide 1.0%", "value": "−"}, {"measurement": "Effect on lowering iron taste and/or smell", "setting": "[1]; saccharide 1.5%", "value": "+"}, {"measurement": "Effect on lowering iron taste and/or smell", "setting": "[1]; saccharide 2.0%", "value": "+"}, {"measurement": "Effect on lowering iron taste and/or smell", "setting": "[1]; saccharide 5.0%", "value": "++"}, {"measurement": "Concentration effective on lowering unpleasant taste and/or smell of aqueous iron ion solution", "setting": "[1]", "value": "≥ 1.5", "unit": "%"}, {"measurement": "Relative rate of inhibiting the production of hydrogen sulfide", "setting": "[2]", "value": 26}, {"measurement": "Relative rate of inhibiting the production of acetaldehyde", "setting": "[3]", "value": 73}, {"measurement": "Relative rate of inhibiting the production of butanal", "setting": "[3]", "value": 100}, {"measurement": "Relative rate of inhibiting the production of decanal", "setting": "[3]", "value": 76}, {"measurement": "Relative rate of inhibiting the production of heptanal", "setting": "[3]", "value": 88}, {"measurement": "Relative rate of inhibiting the production of hexanal", "setting": "[3]", "value": 93}, {"measurement": "Relative rate of inhibiting the production of nonanal", "setting": "[3]", "value": 100}, {"measurement": "Relative rate of inhibiting the production of octanal", "setting": "[3]", "value": 100}, {"measurement": "Relative rate of inhibiting the production of pentanal", "setting": "[3]", "value": 83}, {"measurement": "Relative rate of inhibiting the production of propanal", "setting": "[3]", "value": 98}, {"measurement": "Relative rate of inhibiting the production of total aldehydes", "setting": "[3]", "value": 80}, {"measurement": "Relative rate of inhibiting the production of 2,3-butandion", "setting": "[4]", "value": 100}, {"measurement": "Relative rate of inhibiting the production of acetaldehyde", "setting": "[4]", "value": 50}, {"measurement": "Relative rate of inhibiting the production of isobutanal", "setting": "[4]", "value": 58}, {"measurement": "Relative rate of inhibiting the production of other aldehydes", "setting": "[4]", "value": 0}, {"measurement": "Relative rate of inhibiting the production of propanal", "setting": "[4]", "value": 47}, {"measurement": "Relative rate of inhibiting the production of total aldehydes", "setting": "[4]", "value": 53}]}
{"smiles": "OC[C@H]1O[C@@](CO)(O[C@H]2O[C@H](CO)[C@@H](O)[C@H](O)[C@H]2O)[C@@H](O)[C@@H]1O", "note": "[Sucrose, sucrose]", "values": [{"measurement": "Effect on lowering iron taste and/or smell", "setting": "[1]; saccharide 0.5%", "value": "−"}, {"measurement": "Effect on lowering iron taste and/or smell", "setting": "[1]; saccharide 1.0%", "value": "−"}, {"measurement": "Effect on lowering iron taste and/or smell", "setting": "[1]; saccharide 1.5%", "value": "−"}, {"measurement": "Effect on lowering iron taste and/or smell", "setting": "[1]; saccharide 2.0%", "value": "−"}, {"measurement": "Effect on lowering iron taste and/or smell", "setting": "[1]; saccharide 5.0%", "value": "−"}, {"measurement": "Concentration effective on lowering unpleasant taste and/or smell of aqueous iron ion solution", "setting": "[1]", "value": "not effective"}, {"measurement": "Relative rate of inhibiting the production of hydrogen sulfide", "setting": "[2]", "value": 12}, {"measurement": "Relative rate of inhibiting the production of acetaldehyde", "setting": "[3]", "value": 13}, {"measurement": "Relative rate of inhibiting the production of butanal", "setting": "[3]", "value": "−13"}, {"measurement": "Relative rate of inhibiting the production of decanal", "setting": "[3]", "value": 57}, {"measurement": "Relative rate of inhibiting the production of heptanal", "setting": "[3]", "value": 54}, {"measurement": "Relative rate of inhibiting the production of hexanal", "setting": "[3]", "value": 33}, {"measurement": "Relative rate of inhibiting the production of nonanal", "setting": "[3]", "value": "−54"}, {"measurement": "Relative rate of inhibiting the production of octanal", "setting": "[3]", "value": 43}, {"measurement": "Relative rate of inhibiting the production of pentanal", "setting": "[3]", "value": "−15"}, {"measurement": "Relative rate of inhibiting the production of propanal", "setting": "[3]", "value": 32}, {"measurement": "Relative rate of inhibiting the production of total aldehydes", "setting": "[3]", "value": 20}, {"measurement": "Relative rate of inhibiting the production of 2,3-butandion", "setting": "[4]", "value": 95}, {"measurement": "Relative rate of inhibiting the production of acetaldehyde", "setting": "[4]", "value": 44}, {"measurement": "Relative rate of inhibiting the production of isobutanal", "setting": "[4]", "value": 52}, {"measurement": "Relative rate of inhibiting the production of other aldehydes", "setting": "[4]", "value": 0}, {"measurement": "Relative rate of inhibiting the production of propanal", "setting": "[4]", "value": 43}, {"measurement": "Relative rate of inhibiting the production of total aldehydes", "setting": "[4]", "value": 48}]}
